Reference: ChEMBL document CHEMBL1143658, “Discovery of 2-[(2,4-dichlorophenyl)amino]-N-[(tetrahydro- 2H-pyran-4-yl)methyl]-4-(trifluoromethyl)- 5-pyrimidinecarboxamide, a selective CB2 receptor agonist for the treatment of inflammatory pain” (J Med Chem, 2007)
The source made the active and inactive calls. No cut-off for these calls is given here.

How the values were obtained:
[1] = target: T1, Cannabinoid receptor 2 (Homo sapiens, UniProt P34972); test: Agonist activity at human recombinant CB2 receptor expressed in Saccharomyces cerevisiae cells; type: functional, cell-based
[2] = target: T1, Cannabinoid receptor 2; test: Efficacy at human recombinant CB2 receptor expressed in Saccharomyces cerevisiae cells relative to HU210; type: cell-based
[3] = target: T2, Cytochrome P450 1A2 (Homo sapiens, UniProt P05177); test: Inhibition of human CYP1A2; type: ADME
T2 sequence (P05177 whole entry): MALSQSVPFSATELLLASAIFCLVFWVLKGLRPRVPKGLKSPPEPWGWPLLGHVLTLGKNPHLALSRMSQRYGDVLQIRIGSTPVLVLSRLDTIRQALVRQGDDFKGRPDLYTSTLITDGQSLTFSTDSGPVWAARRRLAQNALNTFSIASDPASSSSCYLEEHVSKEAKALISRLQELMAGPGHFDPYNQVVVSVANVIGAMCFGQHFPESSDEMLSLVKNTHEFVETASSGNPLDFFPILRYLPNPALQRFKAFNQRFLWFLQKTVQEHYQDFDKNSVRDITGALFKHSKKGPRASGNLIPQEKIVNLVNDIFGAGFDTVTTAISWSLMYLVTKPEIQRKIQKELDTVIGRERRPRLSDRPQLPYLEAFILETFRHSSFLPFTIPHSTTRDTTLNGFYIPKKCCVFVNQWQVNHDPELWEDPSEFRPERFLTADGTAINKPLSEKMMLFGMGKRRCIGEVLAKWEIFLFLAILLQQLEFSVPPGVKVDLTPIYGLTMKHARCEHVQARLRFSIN

[4] = target: Cytochrome P450 2C9 (Homo sapiens, UniProt P11712); test: Inhibition of human CYP2C9; type: ADME
[5] = target: Cytochrome P450 2C19 (Homo sapiens, UniProt P33261); test: Inhibition of human CYP2C19; type: ADME
[6] = target: Cytochrome P450 2D6 (Homo sapiens, UniProt P10635); test: Inhibition of human CYP2D6; type: ADME
[7] = target: Cytochrome P450 3A4 (Homo sapiens, UniProt P08684); test: Inhibition of human CYP3A4
[8] = target: T3, Cannabinoid receptor 2 (Rattus norvegicus) (UniProt Q9QZN9); test: (§1) Agonist activity at rat CB2 receptor; type: functional
T3 sequence (whole entry): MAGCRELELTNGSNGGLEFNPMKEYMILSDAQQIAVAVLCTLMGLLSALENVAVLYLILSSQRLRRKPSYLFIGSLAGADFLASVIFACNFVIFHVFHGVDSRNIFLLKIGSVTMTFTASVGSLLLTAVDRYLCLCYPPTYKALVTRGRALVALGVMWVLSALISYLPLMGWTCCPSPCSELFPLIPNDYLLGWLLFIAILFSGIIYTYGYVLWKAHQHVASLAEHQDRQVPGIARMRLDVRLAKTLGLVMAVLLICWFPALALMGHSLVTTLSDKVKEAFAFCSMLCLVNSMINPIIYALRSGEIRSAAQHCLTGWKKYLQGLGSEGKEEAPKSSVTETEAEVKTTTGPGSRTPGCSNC

[9] = target: T4, Cannabinoid receptor 2 (Rattus norvegicus, UniProt Q9QZN9); test: as §1; type: functional
T4 sequence (Q9QZN9 whole entry): T3 sequence (whole entry)

[10] = Oral bioavailability in rat; type: ADME, organism-based; details: in vivo
[11] = Half life in rat; type: ADME, organism-based; details: in vivo
[12] = system: Rattus norvegicus; test: Analgesic activity in po dosed rat FCA model of inflammatory pain; type: functional
[13] = system: Rattus norvegicus; test: Reversal of hyperalgesia in rat at 0.3 mg/kg, po by weight bearing protocol; type: functional, organism-based; parameters: dose 0.3 mg/kg
[14] = Drug concentration in blood of rat FCA model of inflammatory pain at 0.03 mg/kg, po after 1hr; type: ADME, organism-based; parameters: dose 0.03 mg/kg, route oral; details: read-out: Activity
[15] = Drug concentration in blood of rat FCA model of inflammatory pain at 0.1 mg/kg, po after 1hr; type: ADME, organism-based; parameters: dose 0.1 mg/kg, route oral; details: read-out: Activity
[16] = Drug concentration in blood of rat FCA model of inflammatory pain at 0.3 mg/kg, po after 1hr; type: ADME, organism-based; parameters: dose 0.3 mg/kg, route oral; details: read-out: Activity
[17] = system: Rattus norvegicus; test: Reversal of FCA-induced hyperalgesia in rat administered thrice daily at 1 mg/kg, po; type: functional, organism-based; parameters: dose 1 mg/kg
[18] = system: Rattus norvegicus; test: Reversal of antihypersensitivity to pain in rat FCA model of inflammatory pain at 15 mg/kg, ip after 1 hr; type: functional, organism-based; parameters: dose 15 mg/kg
[19] = system: Liver microsomes; test: Intrinsic clearance in rat liver microsome; type: ADME
[20] = target: Cannabinoid receptor 1 (Homo sapiens) (UniProt P21554); test: Agonist activity at recombinant human CB1 receptor expressed in Saccharomyces cerevisiae cells at 2 uM; type: functional, cell-based
Sequence of Cannabinoid receptor 1 (Homo sapiens) (P21554 whole entry): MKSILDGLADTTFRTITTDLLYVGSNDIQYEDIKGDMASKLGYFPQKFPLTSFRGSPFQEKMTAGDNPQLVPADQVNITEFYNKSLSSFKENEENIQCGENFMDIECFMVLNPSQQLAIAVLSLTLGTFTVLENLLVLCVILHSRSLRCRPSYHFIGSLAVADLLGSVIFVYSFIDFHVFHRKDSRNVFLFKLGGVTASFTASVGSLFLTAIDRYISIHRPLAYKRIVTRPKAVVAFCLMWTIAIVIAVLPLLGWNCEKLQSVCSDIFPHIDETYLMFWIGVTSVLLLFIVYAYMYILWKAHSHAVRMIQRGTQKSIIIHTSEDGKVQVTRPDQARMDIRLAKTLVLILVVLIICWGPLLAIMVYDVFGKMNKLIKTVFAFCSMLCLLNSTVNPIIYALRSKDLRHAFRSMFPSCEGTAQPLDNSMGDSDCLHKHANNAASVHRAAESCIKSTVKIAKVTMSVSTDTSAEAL

T1 sequence (P34972 whole entry): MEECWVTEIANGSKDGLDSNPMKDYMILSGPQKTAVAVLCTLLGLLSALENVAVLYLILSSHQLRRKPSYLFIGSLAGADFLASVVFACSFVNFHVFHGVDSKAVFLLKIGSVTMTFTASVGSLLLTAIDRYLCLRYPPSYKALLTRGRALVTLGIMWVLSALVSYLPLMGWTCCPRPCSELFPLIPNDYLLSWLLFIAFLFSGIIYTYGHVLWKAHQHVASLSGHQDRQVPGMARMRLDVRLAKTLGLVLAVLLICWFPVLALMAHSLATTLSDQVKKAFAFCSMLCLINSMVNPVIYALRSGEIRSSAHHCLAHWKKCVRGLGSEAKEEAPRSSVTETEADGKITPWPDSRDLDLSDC
Sequence of Cytochrome P450 2D6 (P10635 whole entry): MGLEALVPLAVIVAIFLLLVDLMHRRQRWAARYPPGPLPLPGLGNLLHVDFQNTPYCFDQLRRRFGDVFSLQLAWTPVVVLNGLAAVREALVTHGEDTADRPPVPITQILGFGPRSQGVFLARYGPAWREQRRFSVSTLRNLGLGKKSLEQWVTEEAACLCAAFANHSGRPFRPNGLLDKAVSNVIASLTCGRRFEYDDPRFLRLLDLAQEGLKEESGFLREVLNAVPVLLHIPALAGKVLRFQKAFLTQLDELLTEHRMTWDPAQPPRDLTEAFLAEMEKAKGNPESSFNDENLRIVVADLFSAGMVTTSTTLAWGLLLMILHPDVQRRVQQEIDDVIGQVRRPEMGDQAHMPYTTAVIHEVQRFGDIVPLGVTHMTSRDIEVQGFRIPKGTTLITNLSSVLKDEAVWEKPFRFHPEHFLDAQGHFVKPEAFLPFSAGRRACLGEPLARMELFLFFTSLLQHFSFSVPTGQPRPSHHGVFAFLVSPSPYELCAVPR
Sequence of Cytochrome P450 3A4 (P08684 whole entry): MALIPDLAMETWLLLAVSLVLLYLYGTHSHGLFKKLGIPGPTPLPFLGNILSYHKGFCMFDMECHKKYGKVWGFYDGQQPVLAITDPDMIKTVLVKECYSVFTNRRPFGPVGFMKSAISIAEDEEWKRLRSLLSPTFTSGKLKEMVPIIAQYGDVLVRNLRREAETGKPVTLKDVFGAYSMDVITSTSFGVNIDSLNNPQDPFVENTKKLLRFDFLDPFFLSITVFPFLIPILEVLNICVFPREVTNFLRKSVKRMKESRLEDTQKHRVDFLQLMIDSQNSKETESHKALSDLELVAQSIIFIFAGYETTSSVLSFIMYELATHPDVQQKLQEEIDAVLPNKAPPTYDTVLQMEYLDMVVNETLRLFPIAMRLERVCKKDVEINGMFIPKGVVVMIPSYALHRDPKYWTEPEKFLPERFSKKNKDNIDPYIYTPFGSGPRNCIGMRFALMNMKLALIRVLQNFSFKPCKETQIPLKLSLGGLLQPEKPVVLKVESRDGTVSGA
Sequence of Cytochrome P450 2C9 (P11712 whole entry): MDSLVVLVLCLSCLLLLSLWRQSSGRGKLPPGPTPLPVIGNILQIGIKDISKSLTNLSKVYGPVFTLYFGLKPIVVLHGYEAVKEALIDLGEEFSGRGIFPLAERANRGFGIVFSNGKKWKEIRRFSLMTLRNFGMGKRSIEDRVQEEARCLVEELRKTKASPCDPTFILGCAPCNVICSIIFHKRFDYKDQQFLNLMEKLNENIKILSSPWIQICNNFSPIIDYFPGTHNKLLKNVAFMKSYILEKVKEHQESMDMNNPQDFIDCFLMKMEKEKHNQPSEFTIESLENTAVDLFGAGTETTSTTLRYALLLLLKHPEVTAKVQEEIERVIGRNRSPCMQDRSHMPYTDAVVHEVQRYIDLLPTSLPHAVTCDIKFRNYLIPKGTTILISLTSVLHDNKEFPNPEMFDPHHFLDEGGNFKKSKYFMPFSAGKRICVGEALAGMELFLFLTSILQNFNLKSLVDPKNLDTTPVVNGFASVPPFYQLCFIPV
Sequence of Cytochrome P450 2C19 (P33261 whole entry): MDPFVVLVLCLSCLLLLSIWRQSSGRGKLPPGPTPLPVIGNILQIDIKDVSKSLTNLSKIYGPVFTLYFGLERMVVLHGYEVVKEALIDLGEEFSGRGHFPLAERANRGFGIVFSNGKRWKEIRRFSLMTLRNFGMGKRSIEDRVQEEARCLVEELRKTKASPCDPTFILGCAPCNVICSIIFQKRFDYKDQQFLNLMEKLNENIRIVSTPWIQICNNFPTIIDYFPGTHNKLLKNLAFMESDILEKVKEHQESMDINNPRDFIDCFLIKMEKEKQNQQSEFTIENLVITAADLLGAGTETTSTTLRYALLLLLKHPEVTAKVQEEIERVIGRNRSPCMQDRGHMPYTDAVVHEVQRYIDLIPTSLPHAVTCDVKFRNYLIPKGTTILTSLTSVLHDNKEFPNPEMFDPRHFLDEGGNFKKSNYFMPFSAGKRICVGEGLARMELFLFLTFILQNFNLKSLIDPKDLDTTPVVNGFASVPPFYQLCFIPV

SMILES	EC50 [1] [µM]	Efficacy [2] [%]	IC50 [3] [µM]	IC50 [5] [µM]	IC50 [6] [µM]	other results
O=C(NCC1CCOCC1)c1cnc(Nc2ccc(F)cc2Cl)nc1C(F)(F)F	0.4	85				
O=C(NCC1CCC1)c1cnc(Nc2cccc(Cl)c2)nc1C(F)(F)F	0.04	82	8	8	22	IC50 [4]: 3 µM; IC50 [7]: 75 µM
O=C(NCC1CCOCC1)c1cnc(Nc2cc(Cl)ccc2Cl)nc1C(F)(F)F	0.1	85				
O=C(OCc1ccco1)c1cnc(N2CCOCC2)nc1C(F)(F)F	0.63	55				
O=C(NCC1CCOCC1)c1cnc(Nc2cccc(Cl)c2F)nc1C(F)(F)F	0.125	90	99	> 100	> 100	IC50 [4]: 75 µM; IC50 [7]: > 100 µM
O=C(NCC1CCOCC1)c1cnc(Nc2ccc(F)cc2F)nc1C(F)(F)F	0.63	81				
N#Cc1ccc(CNC(=O)c2cnc(Nc3cccc(Cl)c3)nc2C(F)(F)F)cc1	0.22	69				
O=C(NCC1CCOCC1)c1cnc(Nc2ccc(Cl)cc2Cl)nc1C(F)(F)F [GW842166X]	0.063	95	> 100	> 100	> 100	IC50 [4]: > 100 µM; IC50 [7]: > 100 µM; Efficacy [8]: 100%; EC50 [9]: 0.091 µM; bioavailability [10]: 58%; half-life [11]: 3 h; ED50 [12]: 0.1 mg/kg; Activity [13]: Active; concentration at 1 h [14]: 30 nM; concentration at 1 h [15]: 130 nM; concentration at 1 h [16]: 370 nM; Activity [17]: Active
O=C(NCC1CCOCC1)c1cnc(Nc2ccc(Cl)cc2F)nc1C(F)(F)F	0.2	80	> 100	> 100	> 100	IC50 [4]: > 100 µM; IC50 [7]: > 100 µM
O=C(NCc1cccc(Cl)c1)c1cnc(Nc2cccc(Cl)c2)nc1C(F)(F)F	1.58	18				
N#Cc1ccc(Nc2ncc(C(=O)NCc3ccccc3)c(C(F)(F)F)n2)cc1	0.4	67				
O=C(NCC1CCOCC1)c1cnc(Nc2cc(Cl)ccc2F)nc1C(F)(F)F	0.125	86	26	> 100	> 100	IC50 [4]: 37 µM; IC50 [7]: 68 µM
O=C(NCc1ccc(Cl)cc1)c1cnc(Nc2cccc(Cl)c2)nc1C(F)(F)F	0.4	65				
COc1cccc(Nc2ncc(C(=O)NCc3ccccc3)c(C(F)(F)F)n2)c1	0.465	76				
O=C(NCc1ccccc1)c1cnc(Nc2ccc(Cl)cc2)nc1C(F)(F)F	0.126	49				
COc1ccc(C(=O)c2c(C)n(CCN3CCOCC3)c3cc(I)ccc23)cc1						Activity [18]: Active
O=C(NCc1ccccc1)c1cnc(Nc2ccccc2Cl)nc1C(F)(F)F	0.25	48				
O=C(NCC1CCCCC1)c1cnc(Nc2cccc(Cl)c2)nc1C(F)(F)F	0.08	82	> 100	19	> 100	IC50 [4]: 9 µM; IC50 [7]: 82 µM
COc1ccc(CNC(=O)c2cnc(Nc3cccc(Cl)c3)nc2C(F)(F)F)cc1	0.214	66				
O=C(NCC1CCOCC1)c1cnc(Nc2cccc(F)c2F)nc1C(F)(F)F	0.4	90				
O=C(NCc1ccccc1)c1cnc(Nc2cccc(Br)c2)nc1C(F)(F)F	0.23	81				
O=C(NCc1ccccc1)c1cnc(Nc2ccccc2)nc1C(F)(F)F	0.4	45				CL [19]: < 0.5 mL/min/g
O=C(NCC1CCOCC1)c1cnc(Nc2cccc(Cl)c2Cl)nc1C(F)(F)F	0.08	90				

SMILES	EC50 [1] [µM]	Efficacy [2] [%]	IC50 [3] [µM]	IC50 [5] [µM]	IC50 [6] [µM]	other results
O=C(NCC1CCOCC1)c1cnc(Nc2cc(F)cc(F)c2)nc1C(F)(F)F	0.125	91	24	91	45	IC50 [4]: > 100 µM; IC50 [7]: > 100 µM
N#Cc1cccc(Nc2ncc(C(=O)NCc3ccccc3)c(C(F)(F)F)n2)c1	0.455	76				
O=C(NCC1CCOCC1)c1cnc(Nc2cc(Cl)cc(Cl)c2)nc1C(F)(F)F	0.033	85	> 100	14	27	IC50 [4]: 13 µM; IC50 [7]: 38 µM
O=C(NCC1CCOCC1)c1cnc(Nc2cccc(Cl)c2)nc1C(F)(F)F	0.05	89	> 100	56	51	IC50 [4]: 18 µM; IC50 [7]: 51 µM
O=C(NCc1ccncc1)c1cnc(Nc2cccc(Cl)c2)nc1C(F)(F)F	0.06	94	0.4	1.9	< 0.1	IC50 [4]: 0.9 µM; IC50 [7]: < 0.1 µM
CC(C)(C)c1ccc(Nc2ncc(C(=O)NCc3ccccc3)c(C(F)(F)F)n2)cc1	> 25					
O=C(NCc1ccc(F)cc1)c1cnc(Nc2cccc(Cl)c2)nc1C(F)(F)F	0.063	78	8	12	1.5	IC50 [4]: 8 µM; IC50 [7]: 5 µM
CC(=O)Nc1ccc(Nc2ncc(C(=O)NCc3ccccc3)c(C(F)(F)F)n2)cc1	> 25					
O=C(NCC1CCOCC1)c1cnc(Nc2c(Cl)cccc2Cl)nc1C(F)(F)F	0.63	86				
O=C(NCC1CC1)c1cnc(Nc2cccc(Cl)c2)nc1C(F)(F)F	0.08	79				
COc1ccc(Nc2ncc(C(=O)NCc3ccccc3)c(C(F)(F)F)n2)cc1	0.2	32				
O=C(NCC1CCOCC1)c1cnc(Nc2ccc(Cl)c(Cl)c2)nc1C(F)(F)F	0.049	83	8	> 25	> 25	IC50 [4]: > 25 µM; IC50 [7]: > 25 µM; Efficacy [20]: 10%
O=C(NCc1ccccc1)c1cnc(Nc2cccc(F)c2)nc1C(F)(F)F	0.31	88				
O=C(NCC1CCCC1)c1cnc(Nc2cccc(Cl)c2)nc1C(F)(F)F	0.08	83	32	14	> 100	IC50 [4]: 6 µM; IC50 [7]: 65 µM
O=C(NCc1ccccc1)c1cnc(Nc2cccc(Cl)c2)nc1C(F)(F)F	0.245	82				
O=C(NCc1ccco1)c1cnc(Nc2ccccc2)nc1C(F)(F)F	0.63	62				CL [19]: 4.6 mL/min/g
COc1cccc(CNC(=O)c2cnc(Nc3cccc(Cl)c3)nc2C(F)(F)F)c1	25	20				
O=C(NCC1(O)CCCCC1)c1cnc(Nc2cccc(Cl)c2)nc1C(F)(F)F	0.125	83	11	17	13	
COc1ccccc1Nc1ncc(C(=O)NCc2ccccc2)c(C(F)(F)F)n1	0.158	77				
O=C(NCc1ccccc1Cl)c1cnc(Nc2cccc(Cl)c2)nc1C(F)(F)F	10	21				
O=C(NCC1CCNCC1)c1cnc(Nc2cccc(Cl)c2)nc1C(F)(F)F	5	46				
CC(=O)Nc1cccc(Nc2ncc(C(=O)NCc3ccccc3)c(C(F)(F)F)n2)c1	> 25					
COc1ccccc1CNC(=O)c1cnc(Nc2cccc(Cl)c2)nc1C(F)(F)F	> 25	78				
